# Measurements: ChEMBL document CHEMBL2073968, “Multidrug resistance protein 4 (MRP4/ABCC4) mediates efflux of bimane-glutathione” (Int J Biochem Cell Biol, 2004)
# Assays:
# [1] = biological target: T1, ATP-binding cassette sub-family C member 4 (Homo sapiens, UniProt O15439); assay: TP_TRANSPORTER: inhibition of bimane-GS efflux in the presence of 1-chloro-2,4-dinitrobenzen(2,4-dinitrophenyl-glutathione) at a concentration of 100uM in MRP4-expressing HepG2 cells; format: functional, cell-based; set-up: scale not given: the % may be the effect or the level left; conditions: hepg2, 100 µM
# T1 sequence (O15439 whole entry): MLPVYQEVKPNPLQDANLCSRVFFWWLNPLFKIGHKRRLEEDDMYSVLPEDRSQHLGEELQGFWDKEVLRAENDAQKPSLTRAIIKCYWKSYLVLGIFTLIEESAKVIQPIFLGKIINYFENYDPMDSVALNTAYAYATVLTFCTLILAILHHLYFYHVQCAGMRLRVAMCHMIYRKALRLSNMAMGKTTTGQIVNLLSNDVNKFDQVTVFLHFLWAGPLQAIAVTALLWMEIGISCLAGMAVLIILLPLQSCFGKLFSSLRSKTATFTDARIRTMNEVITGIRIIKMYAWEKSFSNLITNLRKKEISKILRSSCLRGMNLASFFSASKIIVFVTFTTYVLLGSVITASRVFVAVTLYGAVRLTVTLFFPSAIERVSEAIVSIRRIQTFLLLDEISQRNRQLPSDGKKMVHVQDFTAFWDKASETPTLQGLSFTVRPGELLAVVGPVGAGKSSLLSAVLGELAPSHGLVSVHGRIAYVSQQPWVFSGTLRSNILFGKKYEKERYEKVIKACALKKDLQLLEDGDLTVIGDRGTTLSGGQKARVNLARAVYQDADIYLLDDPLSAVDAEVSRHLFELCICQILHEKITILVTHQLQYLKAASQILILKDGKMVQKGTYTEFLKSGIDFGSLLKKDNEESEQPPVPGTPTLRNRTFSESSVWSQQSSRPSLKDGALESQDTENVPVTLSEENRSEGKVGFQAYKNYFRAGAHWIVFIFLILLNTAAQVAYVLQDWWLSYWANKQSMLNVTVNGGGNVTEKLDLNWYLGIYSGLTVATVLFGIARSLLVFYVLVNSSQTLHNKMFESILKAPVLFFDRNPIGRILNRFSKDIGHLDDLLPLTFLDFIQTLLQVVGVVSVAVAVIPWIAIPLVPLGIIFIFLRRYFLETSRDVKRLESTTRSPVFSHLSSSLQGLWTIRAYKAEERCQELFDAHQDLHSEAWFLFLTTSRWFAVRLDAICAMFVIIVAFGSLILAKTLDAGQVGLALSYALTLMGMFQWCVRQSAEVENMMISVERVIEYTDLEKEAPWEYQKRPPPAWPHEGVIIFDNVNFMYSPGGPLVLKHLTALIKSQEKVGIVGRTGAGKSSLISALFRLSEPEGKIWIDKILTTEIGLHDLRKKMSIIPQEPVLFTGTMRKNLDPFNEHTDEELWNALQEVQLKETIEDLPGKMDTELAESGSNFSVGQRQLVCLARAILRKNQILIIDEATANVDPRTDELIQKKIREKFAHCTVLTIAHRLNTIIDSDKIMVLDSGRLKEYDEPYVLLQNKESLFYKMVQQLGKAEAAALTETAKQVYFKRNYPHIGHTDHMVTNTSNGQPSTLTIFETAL
# [2] = biological target: T1, ATP-binding cassette sub-family C member 4; assay: TP_TRANSPORTER: inhibition of bimane-GS efflux in the presence of Benzbromarone at a concentration of 5uM in MRP4-expressing HepG2 cells; format: functional, cell-based; set-up: scale not given: the % may be the effect or the level left; conditions: hepg2, 5 µM
# [3] = biological target: T1, ATP-binding cassette sub-family C member 4; assay: TP_TRANSPORTER: efflux in MRP4-expressing HepG2 cells; format: functional, cell-based
# [4] = biological target: T1, ATP-binding cassette sub-family C member 4; assay: TP_TRANSPORTER: inhibition of bimane-GS efflux in the presence of Indomethacin at a concentration of 50uM in MRP4-expressing HepG2 cells; format: functional, cell-based; set-up: scale not given: the % may be the effect or the level left; conditions: hepg2, 50 µM
# [5] = biological target: T2, MRP4 (ATP-binding cassette sub-family C member 4) (Homo sapiens, UniProt O15439); assay: TP_TRANSPORTER: inhibition of bimane-GS efflux in the presence of Methotrexate at a concentration of 100uM in MRP4-expressing HepG2 cells; format: functional, cell-based; set-up: scale not given: the % may be the effect or the level left; conditions: probe bimane-GS, read-out: Activity
# T2 sequence (O15439 whole entry): T1 sequence (O15439 whole entry)
# [6] = biological target: T1, ATP-binding cassette sub-family C member 4; assay: TP_TRANSPORTER: inhibition of E217betaG uptake in membrane vesicles from MRP4-expressing Sf9 cells; format: functional, cell membranes, Membrane vesicle
# [7] = biological target: T2, MRP4 (ATP-binding cassette sub-family C member 4); assay: TP_TRANSPORTER: inhibition of bimane-GS efflux in the presence of 6-thioguanine at a concentration of 100uM in MRP4-expressing HepG2 cells; format: functional, cell-based; set-up: scale not given: the % may be the effect or the level left; conditions: probe bimane-GS, read-out: Activity
compound,measurement,setting,value
NC(CCC(=O)NC(CSc1ccc([N+](=O)[O-])cc1[N+](=O)[O-])C(=O)NCC(=O)O)C(=O)O.O=[N+]([O-])c1ccc(Cl)c([N+](=O)[O-])c1 (configuration not stated),Activity,[1],27%
CCc1oc2ccccc2c1C(=O)c1cc(Br)c(O)c(Br)c1 [BENZBROMARONE],Activity,[2],60%
Cc1c(C)n2c(CSC[C@H](NC(=O)CC[C@H](N)C(=O)O)C(=O)CNC(=O)O)c(C)c(=O)n2c1=O [Bimane-glutathione],Activity,[3],substrate []
COc1ccc2c(c1)c(CC(=O)O)c(C)n2C(=O)c1ccc(Cl)cc1 [INDOMETHACIN],Activity,[4],74%
CN(Cc1cnc2nc(N)nc(N)c2n1)c1ccc(C(=O)N[C@@H](CCC(=O)O)C(=O)O)cc1 [METHOTREXATE],activity at 100 µM,[5],53%
C[C@]12CC[C@H](OS(=O)(=O)O)CC1=CC[C@@H]1[C@@H]2CC[C@]2(C)C(=O)CC[C@@H]12 [PRASTERONE SULFURIC ACID],IC50,[6],3 µM
Nc1nc2nc[nH]c2c(=S)[nH]1 [THIOGUANINE],activity at 100 µM,[7],53%
